SMILES strings stand for the structures.

Common to all, as to test: microbe, parasite or virus in culture
What all share (type): cell-based, human immunodeficiency virus type 1 (HIV-1)

Test [1] has as its system HIV-1 Y188L mutant. Particulars: Human immunodeficiency virus 1, HeLa, read-out: EC50 mutant Y188L.
Test [2] deals with HIV-1 K103N-Y181C mutant. Particulars: Human immunodeficiency virus 1, HeLa, read-out: EC50 mutant K103N-Y181C.
The test system of test [3] is HIV-1 K103N mutant. Particulars: Human immunodeficiency virus 1, HeLa, read-out: EC50 mutant K103N.
Test [4] relates to wild type HIV-1. Particulars: Human immunodeficiency virus 1, Hela-JC53.
The test system of test [5] is HIV-1 K103N-L100I mutant. Particulars: Human immunodeficiency virus 1, HeLa, read-out: EC50 mutant K103N-L100I, mutant K103N-L100I.

As a reminder, the EC50 is the concentration giving half of the maximal effect. Turning to `Cc1cc(-c2ccc(C(N)=O)cc2)cc(C)c1Oc1nc(Nc2ccc(C#N)cc2)nc2nc[nH]c12` [Example 45, 4′-(2-(4-Cyanophenylamino)-7H-purin-6-yloxy)-3′,5′-dimethylbiphenyl-4-carboxamide], the EC50 in test [1] was 1 to 10 nM; in test [2], 1 to 10 nM; in test [3], 1 to 10 nM; in test [4] it was less than 1 nM; in test [5], 1 to 10 nM.
For `Cc1cc(-c2ccc(S(N)(=O)=O)cc2)cc(C)c1Oc1nc(Nc2ccc(C#N)cc2)nc2nc[nH]c12` [Example 46, 4′-(2-(4-Cyanophenylamino)-7H-purin-6-yloxy)-3′,5′-dimethylbiphenyl-4-sulfonamide], the EC50 in test [1] is greater than 10 nM; in test [2] it was 1 to 10 nM; in test [3] it was 1 to 10 nM; in test [4], 1 to 10 nM; in test [5], greater than 10 nM.
On to `Cc1cc(-c2ccc(C(N)=O)cc2F)cc(C)c1Oc1nc(Nc2ccc(C#N)cc2)nc2ccn(C)c12` [Example 50, 4′-(2-(4-Cyanophenylamino)-5-methyl-5H-pyrrolo[3,2-d]pyrimidin-4-yloxy)-2-fluoro-3′,5′-dimethylbiphenyl-4-carboxamide], for which the EC50 in test [1] was greater than 10 nM; in test [2] it was 1 to 10 nM; in test [3] it was 1 to 10 nM; in test [4] it was 1 to 10 nM; in test [5], 1 to 10 nM.
`Cc1cc(-c2ccc(S(N)(=O)=O)cc2)cc(C)c1Oc1nc(Nc2ccc(C#N)cc2)nc2ncn(C)c12` [Example 53, 4′-(2-(4-Cyanophenylamino)-7-methyl-7H-purin-6-yloxy)-3′,5′-dimethylbiphenyl-4-sulfonamide]: the EC50 is greater than 10 nM in test [1]; 1 to 10 nM in test [2]; 1 to 10 nM in test [3]; 1 to 10 nM in test [4]; 1 to 10 nM in test [5].
Regarding `Cc1cc(-c2ccc(C(N)=O)cn2)cc(C)c1Oc1nc(Nc2ccc(C#N)cc2)nc2ccn(C)c12` [Example 61, 6-(4-(2-(4-Cyanophenylamino)-5-methyl-5H-pyrrolo[3,2-d]pyrimidin-4-yloxy)-3,5-dimethyl-phenyl)nicotinamide], the EC50 was 1 to 10 nM in test [1]; greater than 10 nM in test [2]; 1 to 10 nM in test [3]; 1 to 10 nM in test [4]; 1 to 10 nM in test [5].
Consider `Cc1cc(-c2ccc(C(N)=O)cc2)cc(C)c1Oc1nc(Nc2ccc(C#N)cc2)nc2ccn(C)c12` [Example 78, 4′-(2-(4-cyanophenylamino)-5-methyl-5H-pyrrolo[3,2-d]pyrimidin-4-yloxy)-3′,5′-dimethylbiphenyl-4-carboxamide], for which the EC50 in test [1], in test [2], in test [3], in test [4] and in test [5] was 1 to 10 nM each time.
As to `Cc1cc(-c2ccc(C(N)=O)cc2)cc(C)c1Oc1nc(Nc2ccc(C#N)cc2)nc2ncn(C)c12` [Example 111, 4′-(2-(4-Cyanophenylamino)-7-methyl-7H-purin-6-yloxy)-3′,5′-dimethylbiphenyl-4-carboxamide], the EC50 is greater than 10 nM in test [1]; greater than 10 nM in test [2]; 1 to 10 nM in test [3]; 1 to 10 nM in test [4]; 1 to 10 nM in test [5].
With `Cc1cc(-c2ccc(C(N)=O)cn2)cc(C)c1Oc1nc(Nc2ccc(C#N)cc2)nc2ncn(C)c12` [Example 123, 6-(4-(2-(4-cyanophenylamino)-7-methyl-7H-purin-6-yloxy)-3,5-dimethylphenyl)nicotinamide], the EC50 was 1 to 10 nM in test [1]; greater than 10 nM in test [2]; 1 to 10 nM in test [3]; 1 to 10 nM in test [4]; greater than 10 nM in test [5].

The values above are taken from patent US8207178B2 (priority 2007, dated 2012).
